Results taken from ChEMBL document CHEMBL5034023, “Development of Multifunctional and Orally Active Cyclic Peptide Agonists of Opioid/Neuropeptide FF Receptors that Produce Potent, Long-Lasting, and Peripherally Restricted Antinociception with Diminished Side Effects” (J Med Chem, 2021).
Active and inactive are the calls of the source. The rule behind the calls is not given here. Bridge positions count the residues as written; N and C are the ends. Square brackets hold non-standard residues; d marks the D form. Peptide text beside a SMILES is read from it. NMeF = CN[C@@H](Cc1ccccc1)C(=O)O; dOrn = NCCC[C@@H](N)C(=O)O; dDab = NCC[C@@H](N)C(=O)O

Experiments:
[1] = molecular target: Kappa-type opioid receptor (Homo sapiens, UniProt P41145); format: functional, cell-based, HEK293-A
[2] = molecular target: T1, Delta-type opioid receptor (Homo sapiens, UniProt P41143); assay: (§1) Agonist activity at DOR (unknown origin) expressed in HEK293-A cells assessed as inhibition of forskolin-induced cAMP accumulation preincubated for 30 mins in presence of 3-isobutyl-1-methylxanthine followed by forskolin and compound addition by competitive PKA binding assay; format: functional, cell-based
[3] = molecular target: T1, Delta-type opioid receptor; assay: (§2) Agonist activity at DOR (unknown origin) expressed in HEK293-A cells assessed as inhibition of forskolin-induced cAMP accumulation preincubated for 30 mins in presence of 3-isobutyl-1-methylxanthine followed by forskolin and compound addition by competitive PKA binding assay relative to control; format: functional, cell-based
[4] = molecular target: T2, Neuropeptide FF receptor 1 (Homo sapiens, UniProt Q9GZQ6); assay: Agonist activity at NPFF1R (unknown origin) expressed in HEK293-A cells assessed as inhibition of forskolin-induced cAMP accumulation preincubated for 30 mins in presence of 3-isobutyl-1-methylxanthine followed by forskolin and compound addition by competitive PKA binding assay; format: functional, cell-based
[5] = molecular target: T2, Neuropeptide FF receptor 1; assay: as §2, with “NPFF1R” for “DOR”, “accumulation by measuring maximal efficacy” for “accumulation”; format: functional, cell-based; settings: filed as agonist
[6] = molecular target: T3, Neuropeptide FF receptor 2 (Homo sapiens, UniProt Q9Y5X5); assay: Agonist activity at NPFF2R (unknown origin) expressed in HEK293-A cells assessed as inhibition of forskolin-induced cAMP accumulation preincubated for 30 mins in presence of 3-isobutyl-1-methylxanthine followed by forskolin and compound addition by competitive PKA binding assay; format: functional, cell-based
[7] = molecular target: T3, Neuropeptide FF receptor 2; assay: as §2, with “NPFF2R” for “DOR”, “accumulation by measuring maximal efficacy” for “accumulation”; format: functional, cell-based; settings: filed as agonist
[8] = Metabolic stability in mouse plasma assessed as degradation half life at 0.01 M measured up to 360 mins; format: ADME, cell-free
Mus musculus [9] = assay: Antinociceptive activity against Kunming mouse model of thermal-induced nociception assessed as peripheral analgesia administered subcutaneously by tail-flick test; format: functional; settings: sc
Mus musculus [10] = assay: Antinociceptive activity against Kunming mouse model of thermal-induced nociception assessed as duration of analgesic effect administered subcutaneously by tail-flick test; format: functional
Mus musculus [11] = assay: Potency index, ratio of test compound ED50 to DN-9 ED50 for antinociceptive activity against Kunming mouse model of thermal-induced nociception assessed as peripheral analgesia administered subcutaneously by tail-flick test; format: functional
Mus musculus [12] = assay: Antinociceptive activity in Kunming mouse assessed as analgesic tolerance administered subcutaneously once daily for 8 days by tail flick test; format: functional, organism-based; settings: time 8.0 day
Mus musculus [13] = assay: Antinociceptive activity against Kunming mouse model of thermal-induced nociception assessed as maximum possible effect at 86.8 nmol/kg, po measured after 20 min by tail flick test relative to control; format: functional
Mus musculus [14] = assay: Antinociceptive activity against Kunming mouse model of thermal-induced nociception assessed as maximum possible effect at 86.8 nmol/kg, po measured after 30 min by tail flick test relative to control; format: functional; settings: 0.5 h
Mus musculus [15] = assay: Antinociceptive activity against Kunming mouse model of thermal-induced nociception assessed as maximum possible effect at 86.8 nmol/kg, po measured after 60 min by tail flick test relative to control; format: functional; settings: 1 h
[16] = molecular target: T1, Delta-type opioid receptor; assay: as §1, with “Potency index, ratio of DN-9 EC50 to test compound EC50 for agonist” for “Agonist”; format: functional, cell-based
Mu-type opioid receptor = Mu-type opioid receptor (Homo sapiens, UniProt P35372)
Mus musculus [17] = assay: Antinociceptive activity against Kunming mouse model of thermal-induced nociception assessed as maximum possible effect at 37915 nmol/kg, po measured after 20 min by tail flick test relative to control; format: functional
Mus musculus [18] = assay: Antinociceptive activity against Kunming mouse model of thermal-induced nociception assessed as maximum possible effect at 37915 nmol/kg, po measured after 30 min by tail flick test relative to control; format: functional; settings: 0.5 h
Mus musculus [19] = assay: Antinociceptive activity against Kunming mouse model of thermal-induced nociception assessed as maximum possible effect at 37915 nmol/kg, po measured after 60 min by tail flick test relative to control; format: functional; settings: 1 h
Mus musculus [20] = assay: Antinociceptive activity against Kunming mouse model of thermal-induced nociception assessed as prolongation of tail-flick latency period at 38 umol/kg, po measured up to 240 mins by tail-flick test; format: functional, organism-based; settings: dose 38.0 µmol/kg, time min <=240
Mus musculus [21] = assay: Antinociceptive activity against Kunming mouse model of thermal-induced nociception assessed as maximum possible effect at 87.9 nmol/kg, po measured after 20 min by tail flick test relative to control; format: functional
Mus musculus [22] = assay: Antinociceptive activity against Kunming mouse model of thermal-induced nociception assessed as maximum possible effect at 87.9 nmol/kg, po measured after 30 min by tail flick test relative to control; format: functional; settings: 0.5 h
Mus musculus [23] = assay: Antinociceptive activity against Kunming mouse model of thermal-induced nociception assessed as maximum possible effect at 87.9 nmol/kg, po measured after 60 min by tail flick test relative to control; format: functional; settings: 1 h
Mus musculus [24] = assay: Antinociceptive activity against Kunming mouse model of thermal-induced nociception assessed as maximum possible effect at 264201 nmol/kg, po measured after 20 min by tail flick test relative to control; format: functional
Mus musculus [25] = assay: Antinociceptive activity against Kunming mouse model of thermal-induced nociception assessed as maximum possible effect at 264201 nmol/kg, po measured after 30 min by tail flick test relative to control; format: functional; settings: 0.5 h
Mus musculus [26] = assay: Antinociceptive activity against Kunming mouse model of thermal-induced nociception assessed as maximum possible effect at 264201 nmol/kg, po measured after 60 min by tail flick test relative to control; format: functional; settings: 1 h
Mus musculus [27] = assay: Antinociceptive activity against Kunming mouse model of thermal-induced nociception assessed as prolongation of tail-flick latency period at 264 umol/kg, po measured up to 240 mins by tail-flick test; format: functional, organism-based; settings: dose 264.0 µmol/kg, time min <=240
Mus musculus [28] = assay: Antinociceptive activity against Kunming mouse model of thermal-induced nociception assessed as maximum possible effect at 89 nmol/kg, po measured after 20 min by tail flick test relative to control; format: functional
Mus musculus [29] = assay: Antinociceptive activity against Kunming mouse model of thermal-induced nociception assessed as maximum possible effect at 89 nmol/kg, po measured after 30 min by tail flick test relative to control; format: functional; settings: 0.5 h
Mus musculus [30] = assay: Antinociceptive activity against Kunming mouse model of thermal-induced nociception assessed as maximum possible effect at 89 nmol/kg, po measured after 60 min by tail flick test relative to control; format: functional; settings: 1 h
Mus musculus [31] = assay: Antinociceptive activity against Kunming mouse model of thermal-induced nociception assessed as maximum possible effect at 8681 nmol/kg, po measured after 20 min by tail flick test relative to control; format: functional
Mus musculus [32] = assay: Antinociceptive activity against Kunming mouse model of thermal-induced nociception assessed as maximum possible effect at 8681 nmol/kg, po measured after 30 min by tail flick test relative to control; format: functional; settings: 0.5 h
Mus musculus [33] = assay: Antinociceptive activity against Kunming mouse model of thermal-induced nociception assessed as maximum possible effect at 8681 nmol/kg, po measured after 60 min by tail flick test relative to control; format: functional; settings: 1 h

Chain of Kappa-type opioid receptor (P41145 whole entry): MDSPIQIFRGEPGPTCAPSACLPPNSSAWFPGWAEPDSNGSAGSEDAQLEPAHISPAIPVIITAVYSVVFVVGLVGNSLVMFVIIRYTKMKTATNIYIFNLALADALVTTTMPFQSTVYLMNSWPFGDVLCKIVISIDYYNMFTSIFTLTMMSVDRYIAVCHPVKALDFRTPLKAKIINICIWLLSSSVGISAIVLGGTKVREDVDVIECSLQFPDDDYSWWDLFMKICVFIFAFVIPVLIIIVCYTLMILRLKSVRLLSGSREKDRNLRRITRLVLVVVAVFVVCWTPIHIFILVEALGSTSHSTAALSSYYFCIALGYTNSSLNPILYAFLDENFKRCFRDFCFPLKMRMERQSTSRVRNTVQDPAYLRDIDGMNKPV
T2 sequence (Q9GZQ6 whole entry): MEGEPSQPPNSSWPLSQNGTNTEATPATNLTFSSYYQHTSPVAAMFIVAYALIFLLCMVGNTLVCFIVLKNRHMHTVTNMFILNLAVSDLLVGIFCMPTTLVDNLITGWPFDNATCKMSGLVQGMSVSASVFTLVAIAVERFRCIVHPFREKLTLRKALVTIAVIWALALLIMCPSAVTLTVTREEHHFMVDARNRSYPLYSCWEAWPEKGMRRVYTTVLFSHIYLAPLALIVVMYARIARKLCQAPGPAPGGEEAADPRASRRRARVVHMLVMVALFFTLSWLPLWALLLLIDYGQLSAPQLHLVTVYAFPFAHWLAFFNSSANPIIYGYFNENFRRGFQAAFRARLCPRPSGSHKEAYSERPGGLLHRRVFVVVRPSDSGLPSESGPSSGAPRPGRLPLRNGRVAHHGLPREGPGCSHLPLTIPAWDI
T1 sequence (P41143 whole entry): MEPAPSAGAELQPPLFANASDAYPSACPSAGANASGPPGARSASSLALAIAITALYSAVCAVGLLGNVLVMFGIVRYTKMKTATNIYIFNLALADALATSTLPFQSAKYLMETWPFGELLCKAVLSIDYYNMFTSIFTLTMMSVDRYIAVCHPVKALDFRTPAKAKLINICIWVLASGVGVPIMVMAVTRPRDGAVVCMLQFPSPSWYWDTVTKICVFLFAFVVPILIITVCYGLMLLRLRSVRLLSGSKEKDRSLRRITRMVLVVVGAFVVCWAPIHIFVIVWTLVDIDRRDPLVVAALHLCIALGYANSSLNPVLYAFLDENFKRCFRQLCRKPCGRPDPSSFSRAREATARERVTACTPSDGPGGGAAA
Chain of Mu-type opioid receptor (P35372 whole entry): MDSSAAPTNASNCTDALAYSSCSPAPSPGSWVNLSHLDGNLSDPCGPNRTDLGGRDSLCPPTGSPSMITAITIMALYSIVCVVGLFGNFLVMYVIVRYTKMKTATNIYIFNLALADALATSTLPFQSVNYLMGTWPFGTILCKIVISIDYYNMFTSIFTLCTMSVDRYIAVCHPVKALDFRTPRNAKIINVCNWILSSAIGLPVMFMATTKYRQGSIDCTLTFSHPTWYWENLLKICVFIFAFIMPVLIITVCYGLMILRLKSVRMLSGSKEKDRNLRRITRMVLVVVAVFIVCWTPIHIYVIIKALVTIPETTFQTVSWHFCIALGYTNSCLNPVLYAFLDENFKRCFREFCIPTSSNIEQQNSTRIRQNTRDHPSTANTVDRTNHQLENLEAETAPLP
T3 sequence (Q9Y5X5 whole entry): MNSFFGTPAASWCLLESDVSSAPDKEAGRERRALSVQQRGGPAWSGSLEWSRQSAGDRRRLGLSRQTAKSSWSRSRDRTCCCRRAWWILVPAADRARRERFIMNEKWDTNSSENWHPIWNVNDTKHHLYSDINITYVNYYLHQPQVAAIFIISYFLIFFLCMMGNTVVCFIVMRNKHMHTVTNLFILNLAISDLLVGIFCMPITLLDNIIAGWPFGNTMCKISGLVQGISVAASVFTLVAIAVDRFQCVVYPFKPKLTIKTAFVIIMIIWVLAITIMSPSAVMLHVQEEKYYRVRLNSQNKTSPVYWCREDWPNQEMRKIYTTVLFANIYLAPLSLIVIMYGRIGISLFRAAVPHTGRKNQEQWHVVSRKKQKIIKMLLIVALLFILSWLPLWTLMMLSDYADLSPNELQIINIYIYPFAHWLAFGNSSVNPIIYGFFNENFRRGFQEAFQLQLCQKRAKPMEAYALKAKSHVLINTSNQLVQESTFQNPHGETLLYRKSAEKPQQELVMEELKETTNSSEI

Compound	EC50 [1]	EC50 [2]	Emax ([3]; filed as agonist)	EC50 [4]	Emax [5]	EC50 ([6]; read-out: EC50)	Emax [7]	half-life at 10000 µM [8]	ED50 (Mus musculus [9])	Tlast (Mus musculus [10])	Ratio ED50 (Mus musculus [11])	Activity (Mus musculus [12])	EC50 (Mu-type opioid receptor)	MPE (Mus musculus [31])	MPE (Mus musculus [32])	MPE (Mus musculus [33])	further results
CN1C(=O)CNC(=O)[C@H](NC(=O)[C@@H](N)Cc2ccc(O)cc2)CC(=O)NCCCC[C@@H](C(=O)N2CCC[C@H]2C(=O)N[C@@H](CCC(N)=O)C(=O)N[C@@H](CCCNC(=N)N)C(=O)N[C@@H](Cc2ccccc2)C(N)=O)NC(=O)[C@@H]1Cc1ccccc1 (H-Y[dD]G[NMeF]KPQRF-NH2; lactam 2-5)	0.0813 µM	0.0742 µM	56%	0.222 µM	77.6%	0.303 µM	71.8%	10.8 min	0.0137 µmol/kg	240 min	15.7	inactive	0.0663 µM	–	–	–	EC50 ([6]; read-out: pEC50 (converted)): 0.309 µM; MPE (Mus musculus [13]): 88.7%; MPE (Mus musculus [14]): 95.6%; MPE (Mus musculus [15]): 80.5%; Ratio EC50 [16]: 7
C[C@@H](NC(=O)[C@@H](N)Cc1ccc(O)cc1)C(=O)NCC(=O)N(C)[C@@H](Cc1ccccc1)C(=O)NCC(=O)N1CCC[C@H]1C(=O)N[C@@H](CCC(N)=O)C(=O)N[C@@H](CCCNC(=N)N)C(=O)N[C@@H](Cc1ccccc1)C(N)=O (H-Y[dA]G[NMeF]GPQRF-NH2)	–	–	–	–	–	–	–	21.8 min	0.216 µmol/kg	90 min	1	inactive	–	–	–	–	MPE (Mus musculus [17]): 75.6%; MPE (Mus musculus [18]): 63.1%; MPE (Mus musculus [19]): 22.8%; Activity (Mus musculus [20]): Active
CN1C(=O)CNC(=O)[C@H](NC(=O)[C@@H](N)Cc2ccc(O)cc2)CCCNC(=O)C[C@@H](C(=O)N2CCC[C@H]2C(=O)N[C@@H](CCC(N)=O)C(=O)N[C@@H](CCCNC(=N)N)C(=O)N[C@@H](Cc2ccccc2)C(N)=O)NC(=O)[C@@H]1Cc1ccccc1 (H-Y[dOrn]G[NMeF]DPQRF-NH2; lactam 2-5)	0.139 µM	0.659 µM	51.9%	0.439 µM	72.4%	0.133 µM	52.8%	41.1 min	0.0132 µmol/kg	240 min	16.4	inactive	0.168 µM	–	–	–	MPE (Mus musculus [21]): 80.8%; MPE (Mus musculus [22]): 96%; MPE (Mus musculus [23]): 70.7%
CN1CC[C@]23c4c5ccc(O)c4O[C@H]2[C@@H](O)C=C[C@H]3[C@H]1C5 [MORPHINE]	–	–	–	–	–	–	–	–	–	–	–	–	–	–	–	–	MPE (Mus musculus [24]): 75.3%; MPE (Mus musculus [25]): 87.6%; MPE (Mus musculus [26]): 63%; Activity (Mus musculus [27]): Active
CN1C(=O)CNC(=O)[C@H](NC(=O)[C@@H](N)Cc2ccc(O)cc2)CCNC(=O)C[C@@H](C(=O)N2CCC[C@H]2C(=O)N[C@@H](CCC(N)=O)C(=O)N[C@@H](CCCNC(=N)N)C(=O)N[C@@H](Cc2ccccc2)C(N)=O)NC(=O)[C@@H]1Cc1ccccc1 (H-Y[dDab]G[NMeF]DPQRF-NH2; lactam 2-5)	0.0712 µM	0.0951 µM	–	0.18 µM	73.4%	0.265 µM	63.2%	530 min	0.0142 µmol/kg	240 min	15.2	inactive	0.0379 µM	–	–	–	Emax [3]: 31.2%; MPE (Mus musculus [28]): 80.8%; MPE (Mus musculus [29]): 93.8%; MPE (Mus musculus [30]): 74%
CN1C(=O)CNC(=O)[C@H](NC(=O)[C@@H](N)Cc2ccc(O)cc2)CCCCNC(=O)C[C@H](C(=O)N2CCC[C@H]2C(=O)N[C@@H](CCC(N)=O)C(=O)N[C@@H](CCCNC(=N)N)C(=O)N[C@@H](Cc2ccccc2)C(N)=O)NC(=O)[C@@H]1Cc1ccccc1 (H-Y[dK]G[NMeF][dD]PQRF-NH2; lactam 2-5)	–	0.581 µM	60.3%	0.528 µM	75.6%	0.19 µM	59%	18.7 min	0.0201 µmol/kg	240 min	–	inactive	0.586 µM	92.6%	94.1%	74.1%	–
CN1C(=O)CNC(=O)[C@@H](NC(=O)[C@@H](N)Cc2ccc(O)cc2)CCCCNC(=O)C[C@@H](C(=O)N2CCC[C@H]2C(=O)N[C@@H](CCC(N)=O)C(=O)N[C@@H](CCCNC(=N)N)C(=O)N[C@@H](Cc2ccccc2)C(N)=O)NC(=O)[C@@H]1Cc1ccccc1 (H-YKG[NMeF]DPQRF-NH2; lactam 2-5)	0.32 µM	0.0282 µM	65.7%	0.0289 µM	80.6%	0.112 µM	68.1%	9.9 min	0.022 µmol/kg	240 min	–	inactive	0.0726 µM	93.9%	93.2%	76.3%	–
CN1C(=O)CNC(=O)[C@@H](NC(=O)[C@@H](N)Cc2ccc(O)cc2)CCCCNC(=O)C[C@H](C(=O)N2CCC[C@H]2C(=O)N[C@@H](CCC(N)=O)C(=O)N[C@@H](CCCNC(=N)N)C(=O)N[C@@H](Cc2ccccc2)C(N)=O)NC(=O)[C@@H]1Cc1ccccc1 (H-YKG[NMeF][dD]PQRF-NH2; lactam 2-5)	–	0.923 µM	62.2%	0.104 µM	76.2%	0.0815 µM	62.4%	6.7 min	0.0263 µmol/kg	240 min	–	inactive	0.167 µM	94.1%	82.5%	70.6%	–
